{"source": "patent US11135252B2", "about": "“Probiotic therapies for developmental disorders and other neurological disorders” (Baylor College of Medicine, priority 2016, dated 2021)", "key": {"[1]": {"tested_on": "oxytocin immunoreactivity in the PVN", "assay": "Oxytocin immunofluorescence in the PVN of MHFD offspring", "assay_type": "in vivo, mice", "conditions": "for oxytocin-positive cell number in the PVN: relative to heat-killed L. reuteri / control treatment", "experimental": "Lactobacillus reuteri MM4-1A (ATCC-PTA-6475) and Lactobacillus johnsonii (ATCC 33200) were cultured anaerobically in MRS broth in a 90% N2, 5% CO2, 5% H2 environment. L. reuteri was heat-killed by keeping the bacteria at 80° C. for 20 minutes (Wang et al., 2010). Bacterial viability was assessed by plating and the efficacy of the heat-kill procedure was confirmed by the absence of colony growth following plating. Cultures were centrifuged, washed, and resuspended in anaerobic solution (PBS) and frozen at −80° C. until use. PBS, live or heat-killed L. reuteri were added to the drinking water, which was changed daily to minimize dosage variability. Whereas the experimental group received live bacteria, one control group received identically prepared cultures of heat-killed bacteria. A second group of control mice received water treated with PBS alone. Live and heat-killed L. reuteri were supplied at a dosage of 1×10^8 organisms/mouse/day continuously in drinking water. Mice consumed the treated water ad libitum over the treatment period. The treated drinking water for each group was replaced daily two hours prior to the onset of the dark cycle to minimize variation in microbial exposure. Behavioral assays were initiated after 4-weeks of L. reuteri or control treatment. The protocol of the L. johnsonii preparation and administration matched the L. reuteri protocol. Fecal samples for sequencing and tissue used in the immunofluorescence studies were collected at the end of the treatment.\nMice were deeply anesthetized by inhalation of isoflurane and perfused transcardially with 10 ml 0.9% phosphate-buffered saline followed by 30 ml 4% paraformaldehyde in 0.1M phosphate buffer (PFA). […] Fluorescence intensity was measured in ImageJ (NIH) by selecting regions of interest (Oxytocin- and NeuN-positive hypothalamic cell bodies). Hypothalamic oxytocin-expressing neuronal population and NeuN+ cell number was assessed in ImageJ using the following operational sequence: (1) open image file, (2) subtract background, (3) adjust threshold, (4) convert to mask, (5) watershed, (6) analyze particles. […]"}, "Cntnap2-deficient mice": {"tested_on": "Cntnap2-deficient mice", "assay": "Social behavior (sociability, social novelty) in Cntnap2-deficient mice", "assay_type": "in vivo", "experimental": "Crawley's three-chamber test for sociability and preference for social novelty was performed as described (Silverman et al., 2010). In brief, the mouse first experienced a 10-minute period of habituation during which it was allowed to freely explore a 60×40×23 cm Plexiglass arena divided into three equally sized, interconnected chambers (Left, Center, Right). Sociability was measured during a second ten-minute period in which the subject could interact either with an empty wire cup (Empty) or a wire cup containing an age and sex-matched stranger conspecific (Mouse 1). Time spent interacting (sniffing, crawling upon) with either the empty cup or the stranger mouse contained in the other cup as well as time spent in each chamber was recorded using the AnyMaze software, by independent observers. Empty cup placement in the Left or Right chamber during the Sociability period was counterbalanced between trials. Finally, preference for social novelty was assayed by introducing a second stranger mouse (Mouse 2) into the previously the empty wire cup. Time spent in each chamber as well as time spent interacting with either Mouse 1 or Mouse 2 was recorded using the automated AnyMaze software by independent observers.\nTo examine whether treatment with L. reuteri could restore ASD-like behaviors in genetic models of ASD, we studied mice lacking contactin associated protein-like 2 (CNTNAP2). Mutations in CNTNAP2 have been associated with syndromic forms of ASD (Nascimento, et al., 2016; Yoo, et al., 2017; Zare, et al., 2017; el-Sobky, et al., 2004; Alarcon, et al., 2008; Sampath, et al., 2013; Chiocchetti, et al., 2015), thereby serving as a genetic model of autism in mice. Second, mice lacking Cntnap2 show ASD-like behaviors (Penagarikano, et al.)."}, "[2]": {"conditions": "mice lacking Cntnap2, L. reuteri in drinking water"}}, "data": [{"substance": "Lactobacillus reuteri MM4-1A (ATCC-PTA-6475) [L. reuteri]", "values": [{"measurement": "oxytocin immunofluorescence intensity in the PVN", "setting": "[1]; relative to heat-killed L. reuteri", "value": "significantly increased"}, {"measurement": "oxytocin-positive cell number in the PVN", "setting": "[1]", "value": "higher than in control-treated MHFD offspring"}, {"measurement": "oxytocin-positive cell number in the PVN", "setting": "[1]; listed as live L. reuteri", "value": "significantly increased"}, {"measurement": "social behavior abnormalities", "setting": "Cntnap2-deficient mice; Cntnap2-deficient mice, L. reuteri treatment", "value": "reverses the social behavior abnormalities"}, {"measurement": "sociability", "setting": "Cntnap2-deficient mice; [2]", "value": "reverses the deficient sociability"}, {"measurement": "social novelty", "setting": "Cntnap2-deficient mice; [2]", "value": "reverses"}]}]}
